In US20250161312A1, “A METHOD FOR THE TREATMENT OF CHEMOTHERAPEUTIC DRUG-INDUCED NEPHROTOXICITY” (INSTITUT NATIONAL DE LA SANTÉ ET DE LA RECHERCHE MÉDICALE, priority 2022, published 2025):

How the values were obtained:
[1] = tested on: mEERL tumors in C57B16/J mice; assay: mEERL in vivo tumor model (HPV+ squamous carcinoma)
Protocol: FIG. 8. […] The arrow represents cisplatin and/or PBS injection. […] (E) Absolute tumor sizes in animals in the different groups.
We used a validated murine model of HPV+ oropharyngeal squamous cell carcinoma as previously described (noncommercial) (77). This model consists of oropharyngeal epithelial cells from C57Bl/6 male mice that stably express the HPV16 viral oncogenes E6 and E7, H-Ras, and luciferase (mEERL cells). mEERL cells were grown in a T75 flask until confluent, after which cells were trypsinized and harvested, washed 3 times with sterile PBS, and resuspended in 1 mL sterile PBS to the appropriate concentration. Mice were injected s.c. into the right flank with 20 μL solution containing either 1,000,000 mEERL cells or PBS (vehicle). The day of mEERL cell injection is indicated as day −14. Tumor volume was monitored using Vernier digital calipers.

[2] = tested on: RPTEC/hTERT1 cells; assay: Comet assay in RPTEC/hTERT1 cells; assay type: cell-based, human; conditions: FIG. 6A
Protocol: FIG. 6. KW6002 alleviates the cisplatin-induced nephrotoxicity associated with apoptosis, lipid metabolism, and oxidative stress. (A) Tail moment assessed by comet assay; 50 cells/condition were analyzed. (B and C) KW6002 attenuates cisplatin-induced renal lipid accumulation, assessed by Red Oil staining. […] Results are the mean±SEM (n=6-9 mice/group). (F-H) KW6002 attenuated cisplatin-induced oxidative stress in RPTEC/hTERT1 cells. (F and G) Gene expression of Nrf2 (F) and HO1 (G). […] Results are the mean±SEM (n=3 independent experiments).
(§1) Treated cells were suspended (60,000 cells/mL) in low-melt agarose (1613111, Bio-Rad) 0.5% in PBS at 42° C. The suspension was then immediately spread on a comet slide (4250-200-03, R&D Systems). Agarose was allowed to cool down for 20 minutes at 4° C. Then, cell membranes were permeabilized with a lysis solution (2.5M NaCl, 100 mM EDTA, 10 mM Tris-HCl, 1% Triton X-100 [pH 10]) at 4° C. for 1 hour. […] The images were analyzed using an ImageJ in-home macro, in which the head (the nucleus) and tail (the DNA that migrated) of the comet were delimited to get the fluorescence intensity of the head, the fluorescence intensity of the tail, and the length of the tail. The calculation of tail moments was done using the following formula: (length of the comet tail×fluorescence intensity of the tail)/total fluorescence intensity (head+tail).

[3] = tested on: H1975 cells; assay: γH2AX nuclear foci in H1975 cells; assay type: cell-based; conditions: 50 μM cisplatin, 10 nM KW6002, 6 hours, FIG. 7F
Protocol: (§2) FIG. 7. […] Caspase 3/-7 activity (n=3 independent experiments) (A) and the number of γH2AX nuclear foci (n=36-63 nuclei/group) (B) were determined. […] Results are expressed as the mean±SEM (n=3 independent experiments). (E) Tail moment was assessed by comet assay. A total of 50 cells per condition were analyzed. *** P<0.001; 1-way ANOVA followed by Tukey's post hoc test. […] (I) KW6002 increased yH2AX expression in tumors from mice of the LLC1 syngeneic model. Quantification of nuclear yH2AX expression.

[4] = tested on: H1975 cells; assay: Cell efflux (flow cytometry) in H1975 cells; assay type: cell-based; conditions: cancer cells in response to cisplatin, data not shown
Protocol: The basic cell efflux function was assessed using an EFLUXX-ID Green Multidrug Resistance Assay Kit (ENZO Life Sciences). Briefly, 2.5×10^5 cells/condition were collected, washed with PBS, and incubated with the EFLUXX-ID Green Detection Reagent for 30 minutes at 37° C., and then efflux was measured immediately by flow cytometry (CytoFLEX LX, Beckman Coulter). All experiments were performed in triplicate, with the measurement of 10,000 individual cells. Data were analyzed using Kaluza Analysis Software (Beckman Coulter).

[5] = tested on: H1975 cells; assay: Comet assay in H1975 cells; assay type: cell-based; conditions: FIG. 7E
Protocol: as §2, §1

[6] = Cumulative model of cisplatin toxicity; assay type: in vivo; conditions: FIG. 5
Excerpt: FIG. 5. […] BUN quantification.

For `CCn1c(=O)c2c(nc(/C=C/c3ccc(OC)c(OC)c3)n2C)n(CC)c1=O` [KW-6002, 8-[(E)-2-(3,4-dimethoxyphenyl)vinyl]-1,3-diethyl-7-methyl-3,7-dihydro-1H-purine-2,6-dione], the “cisplatin-induced pain hypersensitivity (von Frey)” value ([1]; FIG. 8D) was “alleviated cisplatin-induced pain hypersensitivity”, the “tumor control by cisplatin (tumor size)” value ([1]; FIG. 8E) was “significantly potentiated tumor control by cisplatin” and the “indicators of renal toxicity (KIM-1) induced by cisplatin” value ([1]; tumor-bearing mice, FIG. 8A) was “limited”. For the same compound, the “expression of Tnf induced by cisplatin” value ([1]; tumor-bearing mice, FIG. 8B) was “limited”, the “expression of I16 induced by cisplatin” value ([1]; tumor-bearing mice, FIG. 8C) was “limited” and the “cisplatin-induced DNA damage (tail moment)” value [2] was “inhibiting”. The “DNA damage: yH2AX nuclear foci” value [3] was “increased number of H2AX+ cells”, the efflux [4] was “significantly reduced” and the “DNA damage: tail moment” value [5] was “did not impede the antitumoral effect of cisplatin”. The “BUN quantification, cisplatin-induced kidney injury” value [6] was “protects from cisplatin-induced kidney injury”.
